Reference: patent US20170044492A1, “CONVERSION OF SOMATIC CELLS INTO NOCICEPTORS, AND METHODS OF USE THEREOF” (CHILDERN'S MEDICAL CENTER CORPORATION, priority 2013, published 2017)
“And” between values parts separate entries of the source, which are not always exact repeats. Equal entries are not always repeated. Where two headings read alike, the source gives them in different places.

What was measured:
induced human neurons = experiment: Whole-cell patch clamp of induced human neurons; type: cell-based
[1] = test system: tdTomato-positive induced neurons; experiment: Whole-cell patch clamp of induced nociceptors; type: cell-based, mouse
induced nociceptors [2] = type: cell-based, mouse
[3] = test system: tdTomato-positive primary DRG neurons; experiment: Calcium imaging of tdTomato-positive primary DRG neurons with Trp channel agonists; type: cell-based, mouse
[4] = test system: tdTomato-positive induced nociceptors; experiment: Calcium imaging of tdTomato-positive induced nociceptors with Trp channel agonists; type: cell-based, mouse
induced neurons = experiment: Extracellular multi-electrode array recording of induced neurons after agonist application; type: cell-based, mouse
TrpV1 receptor = molecular target: T1, TrpV1 receptor (Mus musculus, UniProt Q704Y3); experiment: PGE2 sensitization of the capsaicin response, calcium imaging of induced nociceptors; type: cell-based
T1 construct: endogenous in cells; host or cells: tdTomato-positive induced nociceptors reprogrammed from TrpV1-Cre+/-::tdTomato+/- mouse embryonic fibroblasts
T1 sequence (Q704Y3 whole entry): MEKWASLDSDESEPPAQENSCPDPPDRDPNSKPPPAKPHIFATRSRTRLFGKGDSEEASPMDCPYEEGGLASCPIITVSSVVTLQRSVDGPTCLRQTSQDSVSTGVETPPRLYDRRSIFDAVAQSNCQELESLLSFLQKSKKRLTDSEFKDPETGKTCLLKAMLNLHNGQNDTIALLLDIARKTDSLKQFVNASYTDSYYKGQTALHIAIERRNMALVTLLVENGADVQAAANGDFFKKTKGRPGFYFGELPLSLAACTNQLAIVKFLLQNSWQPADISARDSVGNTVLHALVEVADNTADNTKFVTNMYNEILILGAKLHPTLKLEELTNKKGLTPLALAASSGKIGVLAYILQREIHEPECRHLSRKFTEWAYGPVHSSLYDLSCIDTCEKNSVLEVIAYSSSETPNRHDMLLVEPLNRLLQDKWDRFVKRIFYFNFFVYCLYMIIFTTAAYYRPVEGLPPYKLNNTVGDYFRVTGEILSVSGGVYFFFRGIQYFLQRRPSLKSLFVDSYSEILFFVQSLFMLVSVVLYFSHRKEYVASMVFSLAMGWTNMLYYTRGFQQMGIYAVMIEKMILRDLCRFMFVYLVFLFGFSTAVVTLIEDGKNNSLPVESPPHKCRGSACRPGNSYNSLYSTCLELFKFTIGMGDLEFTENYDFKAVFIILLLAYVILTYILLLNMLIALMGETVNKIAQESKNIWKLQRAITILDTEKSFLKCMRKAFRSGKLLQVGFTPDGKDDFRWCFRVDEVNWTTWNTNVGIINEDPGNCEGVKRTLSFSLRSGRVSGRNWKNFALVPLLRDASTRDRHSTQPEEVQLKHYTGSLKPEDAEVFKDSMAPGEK

[5] = test system: KCl-responding neurons derived from the BAM factors; experiment: Calcium imaging of neurons derived from the BAM factors alone; type: cell-based, mouse
[6] = molecular target: T2, P2X3 subtype of ionotropic purinergic receptors (Mus musculus, UniProt Q3UR32); experiment: Whole-cell patch clamp of P2X3 currents in induced nociceptors; type: cell-based; conditions: 30 μM
T2 construct: Whole-cell patch recordings were performed on induced tdTomato-positive nociceptors, derived from TrpV1-Cre^+/−::tdTomato^+/− MEFs; endogenous in cells; host or cells: tdTomato-positive induced nociceptors reprogrammed from TrpV1-Cre+/-::tdTomato+/- mouse embryonic fibroblasts
T2 sequence (Q3UR32 1-397): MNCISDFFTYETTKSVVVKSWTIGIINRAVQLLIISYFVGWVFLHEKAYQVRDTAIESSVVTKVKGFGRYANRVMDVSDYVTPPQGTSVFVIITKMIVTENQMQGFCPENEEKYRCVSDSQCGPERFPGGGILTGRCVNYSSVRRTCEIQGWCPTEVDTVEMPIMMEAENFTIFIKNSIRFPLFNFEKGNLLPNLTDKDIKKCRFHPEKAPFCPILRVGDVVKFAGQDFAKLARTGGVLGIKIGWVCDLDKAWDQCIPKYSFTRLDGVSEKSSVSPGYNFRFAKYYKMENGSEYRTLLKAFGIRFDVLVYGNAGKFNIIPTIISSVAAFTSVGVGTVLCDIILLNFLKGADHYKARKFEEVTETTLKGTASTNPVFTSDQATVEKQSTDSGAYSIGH

primary DRGs = type: cell-based, mouse
BAM-derived neurons = type: cell-based, mouse
induced nociceptors [7] = type: cell-based, mouse; remark: listed apart in the source
[8] = adult TrpV1::tdTomato mice, same procedure, n=249 tdTomato-positive cells that responded to KCl
[9] = induced nociceptors, capsaicin 1 μM, mustard oil 100 μM, menthol 250 μM, n=227 tdTomato-positive cells that responded to KCl

Compound: NC1=N[C@H](O)[C@H]2[C@H]3O[C@]4(O)O[C@@H]([C@@H](O)[C@@]2(N1)[C@@H]4O)[C@]3(O)CO [TTX, tetrodotoxin]
- neurons with TTX-resistant sodium currents (neurons/total) (induced human neurons): 10/10
- induced neurons firing single TTX-resistant action potentials overshooting 0 mV (neurons/total) [1]: 8/16 and 7/12
- induced neurons with TTX-resistant sodium currents greater than 50 pA (neurons/total) [1]: 14/15

Compound: ZD7288
- neurons with ZD7288-sensitive HCN currents (neurons/total) [1]: 2/2

Compound: O=C1[O][Pt]2([NH][C@@H]3CCCC[C@H]3[NH]2)[O]C1=O [oxaliplatin]
- sensitization of capsaicin response (spikes) (induced nociceptors [2]): marked sensitization

Compound: CC1CCC(C(C)C)C(O)C1 (stereo not drawn) [menthol]
- tdTomato-positive primary DRG neurons that responded to agonist [3, 8]: 2.5%
- tdTomato-positive cells that responded to agonist [4, 9]: 3%

Compound: C=CCN=C=S [mustard oil]
- tdTomato-positive primary DRG neurons that responded to agonist [3]: 2.5%
- tdTomato-positive cells that responded to agonist [4]: 9%
- arrays with robust action potential firing after agonist application (arrays/total) (induced neurons): 3/3

Compound: CCCCC[C@H](O)/C=C/[C@H]1[C@H](O)CC(=O)[C@@H]1C/C=C\CCCC(=O)O [PGE2, Prostaglandin E2]
- mean change in fluorescence absorption ratio, PGE2-sensitized capsaicin response (TrpV1 receptor; second 300 nM capsaicin application after 1 μM PGE2 for two minutes, n=41): 0.18±6.0*10^−3

Compound: COc1cc(CNC(=O)CCCC/C=C/C(C)C)ccc1O [capsaicin]
- KCl-responding neurons that responded to capsaicin (responders/total) [5]: 0/50
- neurons with inward currents elicited by capsaicin (neurons/total) ([1]; 1 μM capsaicin, voltage clamp, holding −80 mV): 6/11
- mean change in fluorescence absorption ratio, initial capsaicin response (TrpV1 receptor; 300 nM capsaicin, before PGE2): 0.028±3.0*10^−3
- tdTomato-positive primary DRG neurons that responded to agonist [3, 8]: 36%
- tdTomato-positive cells that responded to agonist [4, 9]: 39%
- arrays with robust action potential firing after agonist application (arrays/total) (induced neurons; capsaicin 1 μM, mustard oil 100 μM): 3/3

Compound: Nc1ncnc2c1ncn2[C@@H]1O[C@H](COP(=O)(O)CP(=O)(O)OP(=O)(O)O)[C@@H](O)[C@H]1O [α, β-methylene-ATP]
- neurons with rapidly-adapting inward currents elicited by agonist (neurons/total) [6]: 8/16

Compound: [Cl-].[K+] [KCl, potassium chloride]
- CGRP release from primary DRGs (primary DRGs): dose-dependent increase in CGRP release
- CGRP released, mean (s.e.m.) (BAM-derived neurons): 10.3 (2.6) pg ml-1
- CGRP released, mean (s.e.m.) (induced nociceptors [7]): 390.4 (52.5) pg ml-1
